According to patent US11345711B2, “8,9-dihydroimidazo[1,2-a]pyrimido[5,4-e]pyrimidin-5(6H)-ones” (IMPACT THERAPEUTICS (SHANGHAI), INC, priority 2016, dated 2022):

How the values were obtained:
[1] = system: LoVo cells; experiment: MTT based cell viability assay on LoVo cells; conditions: Homo sapiens, LoVo, 72 h, 3 d, read-out: IC50, growth inhibition of LoVo cells
Description: Determination of the cell growth inhibiting activity of 6-(2-chlorophenyl)-2-((4-(4-methylpiperazin-1-yl)phenyl)amino)-8,9-dihydroimidazo[1,2-a]pyrimido[5,4-e]pyrimidin-5(6H)-one and analogs on LoVo cells using a MTT based cell viability assay
(§1) The thawed LoVo cells were cultured and passaged to the third generation, and the growth state was good and the confluence was about 90%, which began to be used in the experiment. The LoVo cells were digested with trypsin, centrifuged at 800 rpm for 5 min, the supernatant was discarded, resuspended with fresh culture medium, and counted. 6000 Cells are seeded to each well of a 96-well plate. The cells are incubated at 37° C. in a 5% CO2 cell culture incubator overnight. The tested sample (including the tested compound and the reference compound AZD1775) was diluted continuously to 8 concentrations (the last concentration was negative control of DMSO) with a 1:3 and 1:10 dilution in DMSO respectively: 10 μM, 3.3 μM, 1 μM, 0.33 μM, 0.1 μM, 0.033 μM, 0.01 μM, 0 μM (the final concentration of DMSO was 1%). 5 μL of each concentration was added to 120 μL of culture medium (25 times diluted), and the mixture was shaken well. The overnight cells were taken and the culture medium was removed, 195 μL of fresh culture medium was added to each well, and 5 μL of diluted culture medium containing the corresponding concentration of the tested sample was added respectively, and the culture plate was then placed in the 5% CO2 cell culture incubator at 37° C. for 3 d. After removing the original solution and adding 100 μL of fresh serum-free DMEM culture medium containing MTT (0.5 mg/mL) per well, the culture was continued. The original solution was removed after 4 hrs and 100 μl DMSO was added to each well. The 96-well cell culture plates were shaken away from light for 10 min and readed in a multifunctional reader at 552/630/690 nm to give absorption values (OD values). The data were analyzed using a commercial graphic software (Graph Pad Prism 5.0) and the inhibitory activity of the compound on cell proliferation was plotted in terms of cell survival and compound concentration. The IC50 values were fitted by the S-shaped dose-response curve equation as follows: Y=100/(1+10^(Log C-Log IC50)), where C was the concentration of testing compounds.

[2] = target: Wee1 (h) (Homo sapiens, UniProt P30291); experiment: Wee1 kinase (h) detection method, [γ-33P]-ATP filter assay; type: biochemical
Description: Determination of the inhibitory effect of 6-(2-chlorophenyl)-2-((4-(4-methylpiperazin-1-yl)phenyl)amino)-8,9-dihydroimidazo[1,2-a]pyrimido[5,4-e]pyrimidin-5(6H)-one and Analogs on the Enzyme Activity of Wee1 Kinase by Using the Wee1 Kinase (h) Detection Method
Then the stock solution of all compounds under test with 50× concentration in 100% DMSO was added to make the final concentration of 10/1/0.1/0.01 μM, and then mixed the mixture well. The reaction is initiated by the addition of the Mg/ATP mix. After incubation for 40 minutes at room temperature, the reaction is stopped by the addition of phosphoric acid to a concentration of 0.5%. […] Each compound sample is duplicated in duplicate. The negative control was lack of all the components of Wee1 enzyme, and the positive was addition of 30% phosphoric acid to terminate the reaction. The Wee1 inhibitor AZD1775 was detected at 10 μM at the same experiment condition.

[3] = system: NCI-H1299 cells; experiment: MTT based cell viability assay on NCI-H1299 cells; conditions: Homo sapiens, NCI-H1299 cells, read-out: IC50, growth inhibition of NCI-H1299 cells
Description: Determination of the cell growth inhibiting activity of 6-(2-chlorophenyl)-2-((4-(4-methylpiperazin-1-yl)phenyl)amino)-8,9-dihydroimidazo[1,2-a]pyrimido[5,4-e]pyrimidin-5(6H)-one and analogs on NCI-H1299 cells using a MTT based cell viability assay
as §1, with “NCI-H1299” for “LoVo”, “group,” for “medium,”, “1000” for “6000”, “1‰).” for “1%).”, “C−Log” for “C-Log”

Chain of Wee1 (h) (P30291 whole entry): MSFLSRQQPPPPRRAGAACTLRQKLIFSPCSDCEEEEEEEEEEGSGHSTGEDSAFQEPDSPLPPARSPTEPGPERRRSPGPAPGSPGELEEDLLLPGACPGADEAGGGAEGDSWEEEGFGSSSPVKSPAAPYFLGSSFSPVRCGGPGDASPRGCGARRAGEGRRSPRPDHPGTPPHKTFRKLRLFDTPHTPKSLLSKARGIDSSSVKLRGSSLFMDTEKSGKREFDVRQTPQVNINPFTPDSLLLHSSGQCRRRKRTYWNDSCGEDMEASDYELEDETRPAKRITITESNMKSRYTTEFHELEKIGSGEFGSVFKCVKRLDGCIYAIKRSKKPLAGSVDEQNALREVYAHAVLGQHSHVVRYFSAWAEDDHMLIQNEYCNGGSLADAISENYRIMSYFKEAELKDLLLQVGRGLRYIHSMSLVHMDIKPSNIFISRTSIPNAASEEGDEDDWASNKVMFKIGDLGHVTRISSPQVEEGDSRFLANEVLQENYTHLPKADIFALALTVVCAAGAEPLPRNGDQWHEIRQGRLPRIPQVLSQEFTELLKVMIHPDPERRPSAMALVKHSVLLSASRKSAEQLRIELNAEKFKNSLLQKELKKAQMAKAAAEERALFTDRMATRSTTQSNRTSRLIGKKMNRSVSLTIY

## CC(=O)N1Cc2cc(Nc3ncc4c(n3)N3CCN=C3N(c3c(F)cccc3Cl)C4=O)ccc2C2(CC2)C1 [Example 11, 6-(2-Chloro-6-fluorophenyl)-2-((2′-acetyl-2′,3′-dihydro-1′H-spiro[cyclopropane-1,4′-isoquinolin]-7′-yl)amino)-8,9-dihydroimidazo[1,2-a]pyrimido[5,4-e]pyrimidin-5(6H)-one]
[1]
  IC50: 101 nM
[2]; C 0.01 μm compound
  Inh. (%) of Wee1 kinase enzyme activity: 23%
[2]; C 0.1 μm compound
  Inh. (%) of Wee1 kinase enzyme activity: 85%
[2]; C 1 μm compound
  Inh. (%) of Wee1 kinase enzyme activity: 97%
[3]
  IC50: 705 nM

## CN1CCc2ccc(Nc3ncc4c(n3)N3CCN=C3N(c3c(Cl)cccc3Cl)C4=O)cc2C1 [Example 12, 6-(2,6-Dichlorophenyl)-2-((2-methyl-1,2,3,4-tetrahydroisoquinolin-7-yl)amino)-8,9-dihydroimidazo[1,2-a]pyrimido[5,4-e]pyrimidin-5(6H)-one]
[1]
  IC50: 219 nM
[2]; C 0.01 μm compound
  Inh. (%) of Wee1 kinase enzyme activity: 32%
[2]; C 0.1 μm compound
  Inh. (%) of Wee1 kinase enzyme activity: 83%
[2]; C 1 μm compound
  Inh. (%) of Wee1 kinase enzyme activity: 98%
[3]
  IC50: 232 nM

## CN1Cc2cc(Nc3ncc4c(n3)N3CCN=C3N(c3c(Cl)cccc3Cl)C4=O)ccc2C(C)(C)C1 [Example 13, 6-(2,6-Dichlorophenyl)-2-((2,4,4-trimethyl-1,2,3,4-tetrahydroisoquinolin-7-yl)amino)-8,9-dihydroimidazo[1,2-a]pyrimido[5,4-e]pyrimidin-5(6H)-one]
[1]
  IC50: 76.7 nM
[2]; C 0.01 μm compound
  Inh. (%) of Wee1 kinase enzyme activity: 29%
[2]; C 0.1 μm compound
  Inh. (%) of Wee1 kinase enzyme activity: 87%
[2]; C 1 μm compound
  Inh. (%) of Wee1 kinase enzyme activity: 100%
[3]
  IC50: 101 nM

## CN1Cc2cc(Nc3ncc4c(n3)N3CCN=C3N(c3c(Cl)cccc3Cl)C4=O)ccc2C2(CC2)C1 [Example 14, 6-(2,6-Dichlorophenyl)-2-((2′-methyl-2′,3′-dihydro-1′H-spiro[cyclopropane-1,4′-isoquinolin]-7′-yl)amino)-8,9-dihydroimidazo[1,2-a]pyrimido[5,4-e]pyrimidin-5(6H)-one]
[1]
  IC50: 149 nM
[2]; C 0.01 μm compound
  Inh. (%) of Wee1 kinase enzyme activity: 12%
[2]; C 0.1 μm compound
  Inh. (%) of Wee1 kinase enzyme activity: 86%
[2]; C 1 μm compound
  Inh. (%) of Wee1 kinase enzyme activity: 92%
[3]
  IC50: 98.7 nM

## Cc1cccc(C)c1N1C(=O)c2cnc(Nc3ccc4c(c3)CN(C)CC4)nc2N2CCN=C21 [Example 15, 6-(2,6-Dimethylphenyl)-2-((2-methyl-1,2,3,4-tetrahydroisoquinolin-7-yl)amino)-8,9-dihydroimidazo[1,2-a]pyrimido[5,4-e]pyrimidin-5(6H)-one]
[1]
  IC50: 1730 nM
[2]; C 1 μm compound
  Inh. (%) of Wee1 kinase enzyme activity: 89%
[3]
  IC50: 966 nM

## Cc1cccc(C)c1N1C(=O)c2cnc(Nc3ccc4c(c3)CN(C)CC4(C)C)nc2N2CCN=C21 [Example 16, 6-(2,6-Dimethylphenyl)-2-((2,4,4-trimethyl-1,2,3,4-tetrahydroisoquinolin-7-yl)amino)-8,9-dihydroimidazo[1,2-a]pyrimido[5,4-e]pyrimidin-5(6H)-one]
[1]
  IC50: 4760 nM
[2]; C 0.01 μm compound
  Inh. (%) of Wee1 kinase enzyme activity: 15%
[2]; C 0.1 μm compound
  Inh. (%) of Wee1 kinase enzyme activity: 59%
[2]; C 1 μm compound
  Inh. (%) of Wee1 kinase enzyme activity: 98%
[3]
  IC50: 617 nM

## Cc1cccc(C)c1N1C(=O)c2cnc(Nc3ccc4c(c3)CN(C)CC43CC3)nc2N2CCN=C21 [Example 17, 6-(2,6-Dimethylphenyl)-2-((2′-methyl-2′,3′-dihydro-1′H-spiro[cyclopropane-1,4′-isoquinolin]-7′-yl)amino)-8,9-dihydroimidazo[1,2-a]pyrimido[5,4-e]pyrimidin-5(6H)-one]
[1]
  IC50: 290 nM
[2]; C 1 μm compound
  Inh. (%) of Wee1 kinase enzyme activity: 87%
[3]
  IC50: 447 nM

## CC(C)N1C(=O)c2cnc(Nc3ccc(N4CCN(C)CC4)cc3)nc2N2CCN=C21 [Example 18, 6-Isopropyl-2-((4-(4-methylpiperazin-1-yl)phenyl)amino)-8,9-dihydroimidazo[1,2-a]pyrimido[5,4-e]pyrimidin-5(6H)-one]
[1]
  IC50: > 1000 nM
[2]; C 1 μm compound
  Inh. (%) of Wee1 kinase enzyme activity: 14%
[3]
  IC50: > 10000 nM

## CN1CCN(c2ccc(Nc3ncc4c(n3)N3CCN=C3N(C(C)(C)C)C4=O)cc2)CC1 [Example 19, 6-(Tert-butyl)-2-((4-(4-methylpiperazin-1-yl)phenyl)amino)-8,9-dihydroimidazo[1,2-a]pyrimido[5,4-e]pyrimidin-5(6H)-one]
[1]
  IC50: > 100000 nM
[2]; C 1 μm compound
  Inh. (%) of Wee1 kinase enzyme activity: 7%
[3]
  IC50: > 10000 nM

## CN1CCN(c2ccc(Nc3ncc4c(n3)N3CCN=C3N(C3CC3)C4=O)cc2)CC1 [Example 20, 6-Cyclopropyl-2-((4-(4-methylpiperazin-1-yl)phenyl)amino)-8,9-dihydroimidazo[1,2-a]pyrimido[5,4-e]pyrimidin-5(6H)-one]
[1]
  IC50: > 100000 nM
[2]; C 1 μm compound
  Inh. (%) of Wee1 kinase enzyme activity: 9%
[3]
  IC50: > 10000 nM

## CN1CCN(c2ccc(Nc3ncc4c(n3)N3CCN=C3N(C3CCCCC3)C4=O)cc2)CC1 [Example 21, 6-Cyclohexyl-2-((4-(4-methylpiperazin-1-yl)phenyl)amino)-8,9-dihydroimidazo[1,2-a]pyrimido[5,4-e]pyrimidin-5(6H)-one]
[1]
  IC50: 2130 nM
[2]; C 1 μm compound
  Inh. (%) of Wee1 kinase enzyme activity: 9%
[3]
  IC50: 3300 nM

## C=CCN1C(=O)c2cnc(Nc3ccc(N4CCN(C)CC4)cc3)nc2N2CCN=C12 [Example 22, 6-Allyl-2-((4-(4-methylpiperazin-1-yl)phenyl)amino)-8,9-dihydroimidazo[1,2-a]pyrimido[5,4-e]pyrimidin-5(6H)-one]
[1]
  IC50: > 100000 nM
[2]; C 1 μm compound
  Inh. (%) of Wee1 kinase enzyme activity: 8%
[3]
  IC50: > 10000 nM

## CN1CCN(c2ccc(Nc3ncc4c(n3)N3CCN=C3N(c3cccs3)C4=O)cc2)CC1 [Example 23, 2-((4-(4-Methylpiperazin-1-yl)phenyl)amino)-6-(thiophen-2-yl)-8,9-dihydroimidazo[1,2-a]pyrimido[5,4-e]pyrimidin-5(6H)-one]
[1]
  IC50: > 3000 nM
[2]; C 1 μm compound
  Inh. (%) of Wee1 kinase enzyme activity: 22%
[3]
  IC50: > 10000 nM

## CN1CCN(c2ccc(Nc3ncc4c(n3)N3CC(C)(C)N=C3N(c3c(F)cccc3Cl)C4=O)cc2)CC1 [Example 27, 6-(2-Chloro-6-fluorophenyl)-8,8-dimethyl-2-((4-(4-methylpiperazin-1-yl)phenyl)amino)-8,9-dihydroimidazo[1,2-a]pyrimido[5,4-e]pyrimidin-5(6H)-one]
[1]
  IC50: > 100000 nM
[2]; C 1 μm compound
  Inh. (%) of Wee1 kinase enzyme activity: 17%
[3]
  IC50: > 10000 nM
